# US20080261911A1, “Uses of diphenyl/diphenylamine carboxylic acids” (priority 2006, published 2008)
# What was measured:
# [1] = test system: Sp1, Sp3, and Sp4 proteins; assay: Western blot of Sp1, Sp3 and Sp4 protein expression in Panc-1 cells; format: cell-based; conditions: for Sp1, Sp3, and Sp4 protein expression / order of potency for decreased expression of Sp1, Sp3, and Sp4 proteins: 50 μM; for Sp1, Sp3, and Sp4 protein expression: Western blot, vs DMSO
# [2] = test system: VEGF promoter constructs pVEGF1 and pVEGF2; assay: VEGF promoter (pVEGF1/pVEGF2) luciferase transactivation in Panc-1 cells; format: cell-based
# Description: Transfection of Panc-1 cells with pVEGF1 and pVEGF2 and treatment with 50 μM ampiroxicam and tolfenamic acid (FIGS. 2A, 2B) or diclofenac sodium (FIGS. 2C, 2D) with pVEGF1 or pVEGF2 constructs. Cells were transfected with pVEGF1 or pVEGF2 treated with DMSO, 50 μM ampiroxicam, tolfenamic acid, or diclofenac sodium, and luciferase activity determined. Transfection of L3.6pl cells with pVEGF1 (FIG. 2E) or pVEGF2 constructs (FIG. 2F). […] Panc-1 cells were transfected with pVEGF2, treated with 20, 40, 60 or 80 μM ampiroxicam or tolfenamic acid, and luciferase determined. Results presented herein are means ±SE for three separate determinations per treatment group, and significant (p<0.05) decrease in luciferase activity is indicated by an asterisk.
# Cells are cultured in 6-well plates in 2 ml of DME/F12 medium supplemented with 5% fetal bovine serum. After 16-20 hr when cells are 50-60% confluent, reporter gene constructs are transfected using LIPOFECTAMINE™ reagent (Invitrogen, Carlsbad, Calif.). The effects of the selective non-steroidal anti-inflammatory drugs on transactivation are investigated in Panc1 and L3.6pl cells co-transfected with different VEGF constructs (500 ng). […] For proteasome inhibitor experiments, cells will be co-treated with 2 μM lactacystin, and for electrophoretic mobility shift assay (EMSA), nuclear extracts from Panc1 and L3.6pl cells are isolated as described, and aliquots will be stored at −80° C. until used (Abdelrahim et al, 2004; Abdelrahim et al, 2005).
# Previous studies have shown COX-2 inhibitors or small interfering RNAs for Sp proteins decreased vascular endothelial growth factor expression in colon and pancreatic cells (Abdelrahim et al, 2005; Baker et al, 2002; Masferrer et al, 2000; Bouwman et al, 2002). The effects of DMSO, 50 μM tolfenamic acid and 50 μM ampiroxicam on vascular endothelial growth factor expression were initially investigated in Panc-1 cells transfected with the pVEGF1 and pVEGF2 constructs, which contain −2018 to +50 and −131 to +54 VEGF promoter inserts, respectively (FIGS. 2A and 2B).
# [3] = test system: Panc-1 cells; assay: Cell proliferation assay, Panc-1 cells; format: cell-based; conditions: for growth of Panc-1 pancreatic cancer cells: different concentrations, 6 days, cell counting
# Description: FIGS. 6A-6E show comparative effects of non-steroidal anti-inflammatory drugs on Panc-1 cell proliferation and Sp protein expression. Effects of tolfenamic acid (FIG. 6A), ampiroxicam (FIG. 6B), naproxen (FIG. 6C), and diclofenac sodium (FIG. 6D) on Panc-1 cell proliferation. Panc-1 cells were treated with different concentrations of non-steroidal anti-inflammatory drugs for 6 days, and the number of cells were determined on days 2, 4, and 6 by cell counting techniques. […] Panc-1 cells were treated with DMSO, 150 μM ampiroxicam, 150 μM naproxen, and 50 μM tolfenamic acid for 48 hr, and levels of Sp proteins and the cleaved poly (ADP-ribose) polymerase (PARP) protein were determined in whole cell lysates by Western blot analysis. […] Panc1, Panc28 and L3.6pl cells are seeded in DMEM/F12 media with 5% FBS and treated the next day with either vehicle (DMSO) or with the indicated compounds' concentrations. Cells are counted at the indicated times using a Z1™ COULTER COUNTER® cell counter. Each experiment is carried out in triplicate and results expressed as means ±SD for each determination.
# [4] = test system: orthotopically implanted human pancreatic L3.6p1 cancer cells; assay: Orthotopic pancreatic tumor model in athymic nude mice; conditions: gemcitabine 50 mg/kg
# Description: Median tumor volumes (FIG. 8A) and weights (FIG. 8B) in athymic nude mice treated orthotopically with L3.6pl cells, and corn oil (control), tolfenamic acid (25 and 50 mg/kg), and gemcitabine (50 mg/kg) were determined. […] Tumors from the various treatment groups were analyzed for Sp1, Sp3, Sp4, and VEGF protein expression by Western blot analysis. […] Immunostaining is shown for VEGF (FIG. 8D), and CD31 (FIG. 8E). Pancreatic tumor sections from animals treated with solvent (control), gemcitabine (50 mg/kg) and tolfenamic acid (25 and 50 mg/kg) were immunostained with VEGF and CD31 antibodies.
# Male athymic nude mice (NCI-nu) are purchased from the Animal Production Area of the National Cancer Institute Frederick Cancer Research and Development Center, housed and maintained under specific pathogen-free conditions in accordance with current regulations and standards of the United States Department of Agriculture. Injection of L3.6pl cells (with greater than 90% viability is performed as previously described (Bruns et al, 1999). Seven days after implantation of tumor cells into the pancreas of each mouse, five mice are killed to confirm the presence of tumor lesions.
# Mice (10 animals per treatment group) are randomized to receive one of the following treatments: (1) thrice weekly oral administrations of vehicle solution which will serve as a control group; (2) thrice weekly oral administrations of at least three non-steroidal anti-inflammatory drugs at doses of 10, 25, and 50 mg/kg/day; (3) twice weekly intraperitoneal injections of 50, 75, and 100 mg/kg/day gemcitabine alone; and (4) combinations of gemcitabine and non-steroidal anti-inflammatory drugs. Mice are sacrificed on day 35 and body weights measured. Primary tumors in the pancreas are excised, measured, weighed. For immunohistochemistry (IHC) and hematoxylin and eosin (H&E) staining procedures, one part of the tumor tissue is fixed in formalin and embedded in paraffin, and another part is embedded in TISSUE-TEK® O.C.T. compound, rapidly frozen in liquid nitrogen, and stored at −70° C. Visible liver metastases are counted with the aid of a dissecting microscope, and the tissues processed for hematoxylin and eosin staining.
# Paraffin-embedded tissues are used for identification of Sp proteins, VEGFR2p27 and vascular endothelial growth factor. Tissue sections ([…] thick) are mounted on positively charged SUPERFROST slides (Fischer Scientific, Co, Houston, Tex.) and dried overnight. Sections are deparaffinized in xylene and treated with a graded series of alcohol [100, 95, and 80% ethanol (v/v) in double distilled H2O] and rehydrated in phosphate buffered saline (pH 7.5). Tissues are treated with pepsin (Biomeda) for 15 min at 37° C. and washed with phosphate buffered saline. A positive reaction is visualized by incubating the slides with stable 3,3′-diaminobenzidine for 10-20 min. Sections are rinsed with distilled water, counterstained with Gill's hematoxylin for 1 min, and mounted with UNIVERSAL MOUNT (Research Genetics). […] Tumor sample lysates are also examined by western blot analysis for the same proteins.
# The potential anti-tumorigenic and anti-angiogenic activity of tolfenamic acid against pancreatic tumors was investigated in an orthotopic athymic nude mouse model. L3.6pl cells were used for this study based on their aggressive growth and production of liver metastases (Bruns et al, 1999; Dubois et al, 1998).
# [5] = test system: Sp1, Sp3 and Sp4 in colon cancer cells; conditions: cited from earlier work
# [6] = test system: cleaved poly (ADP-ribose) polymerase (PARP) protein; assay: Apoptosis: cleaved PARP in Panc-1 cells, Western blot; format: cell-based; conditions: 150 μM, 48 hr
# Description: Cells are washed once with phosphate buffered saline PBS and collected by scraping in 200 μL of lysis buffer [50 mM HEPES, 0.5M sodium chloride, 1.5 mM magnesium chloride, 1 mM EGTA, 10% (v/v) glycerol, 1% Triton X-100, 5 μL/ml of Protease Inhibitor Cocktail (Sigma)]. The lysates from the cells are incubated on ice for 1 hr with intermittent vortexing followed by centrifugation at 40,000 g for 10 min at 4° C. Equal amounts of protein (60 μg) from each treatment group are diluted with loading buffer, boiled and loaded onto 10 and 12.5% SDS-polyacrylamide gel. […] Samples are electrophoresed, transferred to membranes, and proteins detected by incubation with polyclonal primary antibodies Sp1, Sp3, Sp4, HDAC, VEGF (a-20), c-Met, surviving, VEGF, cleaved PARP, and β-tubulin (H-235) followed by blotting with appropriate horseradish peroxidase-conjugated secondary antibody as previously described (Abdelrahim et al, 2004). After autoradiography, band intensities are determined by a scanning laser densitometer (Sharp Electronics Corporation, Mahwah, N.J.) using ZERO-D SCANALYTICS software (Scanalytics Corporation, Billerica, Mass.).
# [7] = bi-weekly intraperitoneal from day 7, sacrificed day 35
compound,measurement,setting,value
N#Cc1ccc(C(c2ccc(C#N)cc2)n2cncn2)cc1 [letrozole],"Sp1, Sp3, and Sp4 protein expression",[1]; 48 hr,had no effect
O=C(O)Cc1ccccc1Nc1c(Cl)cccc1Cl [diclofenac sodium],"order of potency for decreased expression of Sp1, Sp3, and Sp4 proteins",[1]; 48 hr,tolfenamic acid>diclofenac˜diflunisal
same,"Sp1, Sp3, and Sp4 protein expression",[1]; 48 hr,"decreased expression of Sp1, Sp3, and Sp4 proteins"
same,"luciferase activity, pVEGF1 and pVEGF2 constructs","[2]; Panc-1 cells, 50 μM",decreased transactivation
same,relative potency in Panc-1 growth inhibition,[3]; compared with ampiroxicam and naproxen,exhibited higher potencies
same,growth of Panc-1 pancreatic cancer cells,[3],decreased growth of Panc-1 pancreatic cancer cells
O=C(O)c1cc(-c2ccc(F)cc2F)ccc1O [diflunisal],"order of potency for decreased expression of Sp1, Sp3, and Sp4 proteins",[1]; 48 hr,tolfenamic acid>diclofenac˜diflunisal
same,"Sp1, Sp3, and Sp4 protein expression",[1]; 48 hr,"decreased expression of Sp1, Sp3, and Sp4 proteins"
Cc1ccc(C(=O)c2ccc(CC(=O)O)n2C)cc1 [tolmetin],"Sp1, Sp3, and Sp4 protein expression",[1]; 48 hr,had no effect
CC(C)Cc1ccc(C(C)C(=O)O)cc1 (centres unmarked) [ibuprofen],"Sp1, Sp3, and Sp4 protein expression",[1]; 48 hr,had no effect
O=C(O)CCC(=O)c1ccc(-c2ccccc2)cc1 [fenbuten],"Sp1, Sp3, and Sp4 protein expression",[1]; 48 hr,had no effect
"Nc1ccn([C@@H]2O[C@H](CO)[C@@H](O)C2(F)F)c(=O)n1 [gemcitabine, 2′, 2′-difluorodeoxycitidine]",immunostaining for vascular endothelial growth factor in tumor sections,[4],relatively greater staining
same,Body Weight Median,[4]; [7],24 g
same,Incidence Liver metastasis,[4]; [7],did not affect the incidence of liver metastasis
same,Pancreatic Tumor Incidence (positive mice/mice injected),[4]; [7],10/10
same,Tumor Volume Median,[4]; [7],1186.8 mm^3
same,Tumor Weight Median,[4]; [7],0.8 g
same,Incidence Liver metastasis,"[4]; bi-weekly intraperitoneal from day 7, sacrificed day 35, listed as Gemcitabine",5/10
CS(=O)(=O)Nc1ccc([N+](=O)[O-])cc1Oc1ccccc1 [nimesulide],"levels of Sp1, Sp4 and Sp3",[5],decreased levels of Sp1 and Sp4 (but not Sp3)
CC(=O)N[C@@H](CSC(=O)[C@]1([C@@H](O)C(C)C)NC(=O)[C@H](C)[C@@H]1O)C(=O)O [lactacystin],"effect on tolfenamic acid-induced Sp1, Sp3, and Sp4 protein degradation","[1]; 2 μM lactacystin plus 50 μM tolfenamic acid, 48 hr","significant inhibition of Sp1, Sp3, and Sp4 protein degradation"
same,effect on tolfenamic acid-decreased transactivation of pVEGF2,[2]; Panc-1 cells co-treated with tolfenamic acid and proteasome inhibitor,blocked in cells co-treated with lactacystin
COc1ccc2c(c1)c(CC(=O)OCC(=O)O)c(C)n2C(=O)c1ccc(Cl)cc1 [acemetacin],"Sp1, Sp3, and Sp4 protein expression",[1]; 48 hr,had no effect
COc1ccc2cc([C@H](C)C(=O)O)ccc2c1 [naproxen],"Sp1, Sp3, and Sp4 protein expression",[1]; 48 hr,had no effect
same,Sp protein degradation,"[1]; 150 μM, 48 hr (concentration of comparable growth inhibition)",only tolfenamic acid induced protein degradation
same,growth of Panc-1 pancreatic cancer cells,[3],decreased growth of Panc-1 pancreatic cancer cells
same,poly (ADP-ribose) polymerase cleavage,[6],only tolfenamic acid induced protein degradation and poly (ADP-ribose) polymerase cleavage
